# Columns and labels:
# [1] = NO release in solution with and without 6 Gy X-ray irradiation (Greiss assay); assay type: physicochemical; conditions: for NO release: Greiss assay
# Text: (§1) FIGS. 1A and 1B are schemes illustrating how DM1-NO encapsulated PLGA-b-PEG nanoparticles (DM1-NO-NPs) can accumulate in tumors through the EPR effect. In the presence of radiation and/or reduced pH in endosomes/lysosomes, the S—N bond was broken, releasing DM1 and NO. DM1 inhibits microtubule assembly, arresting cells at the more radiosensitive G2/M phase. Meanwhile, NO can react with ROS to form radicals such as peroxynitrites, causing DNA and lipid damages. The combined effects enhance the efficacy of RT. […] Quantification was based on Greiss assay. PBS, cell culture medium (RPBI-1640), DM1, and DM1-NPs were tested as controls. FIG. 1D is a histogram showing the results of DLS analysis of DM1-NO-NPs in water. FIG. 1E is a plot showing the zeta potential of DM1-NO-NPs in water. FIG. 1F is a bar graph illustrating the stability of DM1-NO under ambient conditions. After synthesis, dry product of DM1-NO was kept at room temperature and the total amount of remaining NO was quantified using Griess assay on Day 0, 7, 14, and 21. FIG. 1G is plot illustrating the stability of DM1-NO in solutions. DM1-NO (20.09 μmol) was dissolved in PBS of different pH (5.5, 6.5, and 7.4). Time-dependent NO release was measured on a Sievers NOA 280i system, which assesses NO based on gas phase chemiluminescent reaction between NO and ozone. FIG. 1H is a line graph showing release profiles for DM1-NO-NPs, tested in PBS of different pH at 37° C. by Greiss assays. FIG. 1I is a histogram showing the results of DLS analysis of DM1-NPs. FIG. 1J is a plot showing the zeta potential of DM1-NPs. FIG. 1K is a series of representative images of clonogenic assays. H1299 cells were treated with 20 nM of DM1 and DM1-NO for 12 h, followed −X-ray irradiation (6 Gy). […]
# NO concentration was assessed to determine the amount of DM1-NO prodrug loaded into the DM1-NO-NPs. […] Therefore, to quantify the overall NO amount, the total nitrite (NO2-) and nitrate (NO3-) concentrations in a NP solution cells) were measured using Nitrate/Nitrite Colorimetric assay (Cayman Chemical) by following the vendor's protocol. […]
# H1299 cells [2] = assay: MTT cell viability assay, 72 h, without RT; assay type: cell-based, human; conditions: Homo sapiens, NCI-H1299
# Protocol: The viability of the H1299 cells after different treatments was measured by (4,5-dimethythiazon-2-yl)-2,5-diphenyl tetrazolium bromide (MTT) assay using an Infinite M200 microplate reader (BioTek's Synergy™ Mx, USA). Around 3×10^3 cells per well were seeded into a 96-well plate and cultured overnight until the cells fully adhered to the bottom of the plate. The cells were treated with different treatment groups, including free drugs (DM1 and DM1-NO), and drug loaded nanoparticles (DM1-NPs and DM1-NO-NPs) for 72 h. […] After that MTT reagent (in 20 μL PBS, 5 mg/mL) was added to each well. The cells were further incubated for 4 h at 37° C. The medium in each well was then removed and replaced by 100 μL DMSO. The plate was gently shake for 5 min (instrument setup) to dissolve the formazan crystals, and the absorbance at 570 nm was recorded by a microplate reader. Each experiment condition was run three times and the data were shown as the mean value plus a standard deviation (±SD).
# H1299 cells [3] = assay: Clonogenic assay with X-ray irradiation, linear-quadratic model; assay type: cell-based, human
# Protocol: Around 3×10^5 of H1299 cells were plated in a series of 25 mm petri dishes in 5 mL of complete RMPI-1640 medium, and the cells were incubated for 24 h at 37° C. Once the cells were completely adhered to the bottom of the plate, the media was replaced with fresh RPMI-1640 containing DM1 or DM1-NO with a final concentration of 20 nM. After another 12 h of incubation, the cell cultures were irradiated by X-rays (320 kV) of different doses Immediately following the X-ray irradiation, the cell monolayers were trypsinized using 0.05% Trypsin/EDTA (Gibco, Life Technologies, USA). Single cells were collected and plated onto a 25 mm petri dish in 5 mL complete media (FIG. 1K). Each dish was then incubated for 21 days to allow colonies to form. After that, the media was removed and 0.5% crystal violet in 70% methanol was used to fixed and stain the existing colonies. The plates were sufficiently and carefully rinsed, and were dried at room temperature. Once dried, the colonies were counted manually under a microscope. When observed under the microscope, colonies of […] were said to be surviving colonies. The survival rate of these colonies was normalized to the plating efficiency of the untreated control cells. The mean and standard deviation of surviving colonies in each treatment group was calculated.
# The potential of DM1-NO as a radiosensitizer was assessed by clonogenic assays. Briefly, DM1 or DM1-NO was incubated with H1299 cells, the cells were irradiated with X-rays (0-10 Gy), and the resulting cells were seeded onto a petri dish (FIG. 1K). Colonies consisting more than 50 cells after 3 weeks were counted, and the data fit to a linear-quadratic model (Table 3).
# [4] = Stability of dry DM1-NO under ambient conditions (Griess assay); assay type: physicochemical; conditions: powder form, 2 weeks' storage at room temperature
# Text: as §1, with “ozone.” for “ozone. FIG. 1H is a line graph showing release profiles for DM1-NO-NPs, tested in PBS of different pH at 37° C. by Greiss assays. FIG. 1I is a histogram showing the results of DLS analysis of DM1-NPs. FIG. 1J is a plot showing the zeta potential of DM1-NPs. FIG. 1K is a series of representative images of clonogenic assays. H1299 cells were treated with 20 nM of DM1 and DM1-NO for 12 h, followed −X-ray irradiation (6 Gy).”
# [5] = Time-dependent NO release in PBS of different pH (Sievers NOA 280i chemiluminescence); assay type: physicochemical
# Text: FIGS. 1A and 1B are schemes illustrating how DM1-NO encapsulated PLGA-b-PEG nanoparticles (DM1-NO-NPs) can accumulate in tumors through the EPR effect. In the presence of radiation and/or reduced pH in endosomes/lysosomes, the S—N bond was broken, releasing DM1 and NO. DM1 inhibits microtubule assembly, arresting cells at the more radiosensitive G2/M phase. Meanwhile, NO can react with ROS to form radicals such as peroxynitrites, causing DNA and lipid damages. The combined effects enhance the efficacy of RT. […] Quantification was based on Greiss assay. PBS, cell culture medium (RPBI-1640), DM1, and DM1-NPs were tested as controls. FIG. 1D is a histogram showing the results of DLS analysis of DM1-NO-NPs in water. FIG. 1E is a plot showing the zeta potential of DM1-NO-NPs in water. FIG. 1F is a bar graph illustrating the stability of DM1-NO under ambient conditions. After synthesis, dry product of DM1-NO was kept at room temperature and the total amount of remaining NO was quantified using Griess assay on Day 0, 7, 14, and 21. FIG. 1G is plot illustrating the stability of DM1-NO in solutions. DM1-NO (20.09 μmol) was dissolved in PBS of different pH (5.5, 6.5, and 7.4). Time-dependent NO release was measured on a Sievers NOA 280i system, which assesses NO based on gas phase chemiluminescent reaction between NO and ozone. FIG. 1H is a line graph showing release profiles for DM1-NO-NPs, tested in PBS of different pH at 37° C. by Greiss assays. FIG. 1I is a histogram showing the results of DLS analysis of DM1-NPs. FIG. 1J is a plot showing the zeta potential of DM1-NPs. FIG. 1K is a series of representative images of clonogenic assays. H1299 cells were treated with 20 nM of DM1 and DM1-NO for 12 h, followed −X-ray irradiation (6 Gy). The resulting cells were plated for clonogenic assays. FIG. 1L is a plot showing UV-vis analysis of DM1-NO, PLGA-b-PEG and DM1-NO-NPs. FIG. 1M is a plot showing FT-IR analysis of DM1-NO, PLGA-b-PEG and DM1-NO-NPs. FIG. 1N is a plot showing the results of DLS analysis (hydrodynamic size) over time for DM1-NO-NPs that were incubated in PBS for 24 h.
# DM1-NO was stable under ambient conditions in the powder form. According to Griess assay, less than 10% of the compound was degraded over 2 weeks' storage at room temperature (FIG. 1F). […] (FIG. 1G), and the degradation was accelerated at low pH (e.g. pH 6.5 or 5.5, FIG. 1G, Table 1), and under X-ray irradiation (FIG. 1C).
compound,measurement,setting,value
COc1cc2cc(c1Cl)N(C)C(=O)C[C@@H](OC(=O)[C@H](C)N(C)C(=O)CCSN=O)[C@]1(C)OC1[C@H](C)[C@@H]1C[C@@](O)(NC(=O)O1)[C@H](OC)/C=C\C=C(/C)C2 (stereo partly shown) [DM1-NO],increase of NO release,[1]; 6 Gy X-ray irradiation applied to solution,5.14 fold
same,NO release,[1]; before 6 Gy X-ray irradiation,3.68 µM
same,NO release,[1]; in the presence of 6 Gy X-ray irradiation,18.88 µM
same,IC50,H1299 cells [2],0.0259 µM
same,D10 (radiation dose at 10% fractional survival),"H1299 cells [3]; 20 nM, 12 h, X-rays 0-10 Gy",4.39 Gy
same,α (linear quadratic model best fit value),"H1299 cells [3]; 20 nM, 12 h, X-rays 0-10 Gy",0.0765
same,β (linear quadratic model best fit value),"H1299 cells [3]; 20 nM, 12 h, X-rays 0-10 Gy",0.0051
same,dose modifying factor at 10% factional survival (DMF10),H1299 cells [3]; relative to RT alone,1.23
same,compound degraded,[4],less than 10%
same,degradation in solution,"[5]; PBS at 37° C., accelerated at low pH and under X-ray",gradually broke down
same,Average NO Release (per μL of sample),[5]; PBS pH 5.5,1.29E−07 μmol NO/min
same,Average NO Release (per μL of sample),[5]; PBS pH 6.5,7.81E−08 μmol NO/min
same,Average NO Release (per μL of sample),[5]; PBS pH 7.4,7.83E−08 μmol NO/min

# Reference: US12570704B2, “Functionally modified maytansinoids and compositions and methods of use thereof” (University of Georgia Research Foundation, Inc., priority 2019, dated 2026)
